In PubChem BioAssay (NCI):
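Briefly, cells in 96-well plates were exposed to five compound concentrations for 48 h, and endpoints were estimated by linear interpolation. Here, GI50 denotes the concentration required for 50% inhibition of growth. The concentration for full growth arrest is given as TGI.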

What was measured:
Test in all cases: growth of human tumour cells (NCI), 48 h
[1] = test system: SF-268 CNS
[2] = test system: SNB-19 CNS
[3] = test system: A498 renal
[4] = test system: IGROV1 ovarian
[5] = test system: M14 melanoma
[6] = test system: MDA-MB-435
[7] = test system: UACC-62 melanoma
[8] = test system: NCI/ADR-RES ovarian
[9] = test system: HCT-15 colon
[10] = test system: T-47D breast
[11] = test system: SW-620 colon
[12] = test system: SNB-75 CNS
[13] = test system: MCF7 breast
[14] = test system: HOP-92 NSCLC
[15] = test system: NCI-H522 lung
[16] = test system: LOX IMVI melanoma
[17] = test system: OVCAR-3 ovarian
[18] = test system: OVCAR-4 ovarian
[19] = test system: SR leukemia
[20] = test system: MOLT-4 leukemia
[21] = test system: CAKI-1 renal
[22] = test system: CCRF-CEM leukemia
[23] = test system: RPMI-8226 leukemia
[24] = test system: SK-MEL-5 melanoma
[25] = test system: HS 578T breast
[26] = test system: KM12 colon
[27] = test system: PC-3 prostate
[28] = test system: HL-60(TB) leukemia
[29] = test system: NCI-H460 lung
[30] = test system: HT29 colon
[31] = test system: SN12C renal
[32] = test system: HCC-2998 colon
[33] = test system: OVCAR-5 ovarian
[34] = test system: UACC-257 melanoma
[35] = test system: U251 CNS
[36] = test system: MALME-3M melanoma
[37] = test system: RXF 393 renal
[38] = test system: BT-549 breast
[39] = test system: K-562 leukemia
[40] = test system: UO-31 renal
[41] = test system: SK-MEL-2 melanoma
[42] = test system: NCI-H226 lung
[43] = test system: COLO 205 colon
[44] = test system: A549 NSCLC
[45] = test system: EKVX NSCLC
[46] = test system: SK-OV-3 ovarian
[47] = test system: ACHN renal
[48] = test system: HOP-62 NSCLC
[49] = test system: 786-0 renal
[50] = test system: TK-10 renal
[51] = test system: SF-539 CNS
[52] = test system: NCI-H23 lung
[53] = test system: OVCAR-8 ovarian
[54] = test system: HCT-116 colon
[55] = test system: SK-MEL-28 melanoma
[56] = test system: DU-145 prostate
[57] = test system: SF-295 CNS

COc1ccc(-c2nc(-c3nc4cc(Cl)c(Cl)cc4[nH]3)c3ccccn23)cc1
GI50 [1]: 2.59 µM | TGI [1]: 6.83 µM | GI50 [2]: 2.64 µM | TGI [2]: > 100 µM | GI50 [3]: 4.2 µM | TGI [3]: > 100 µM | GI50 [4]: 3.73 µM | TGI [4]: > 100 µM | GI50 [5]: 4.92 µM | TGI [5]: > 100 µM | GI50 [6]: 5.77 µM | TGI [6]: > 100 µM | GI50 [7]: 5.59 µM | TGI [7]: > 100 µM | GI50 [8]: 3.9 µM | TGI [8]: > 100 µM | GI50 [9]: 30.1 µM | TGI [9]: > 100 µM | GI50 [10]: 4.06 µM | TGI [10]: > 100 µM | GI50 [11]: 8.37 µM | TGI [11]: > 100 µM | GI50 [12]: 1.73 µM | TGI [12]: 3.23 µM | GI50 [13]: 7.2 µM | TGI [13]: > 100 µM | GI50 [14]: 1.82 µM | TGI [14]: 5.1 µM | GI50 [15]: 3.37 µM | TGI [15]: 82 µM | GI50 [16]: 3.6 µM | TGI [16]: > 100 µM | GI50 [17]: 3.18 µM | TGI [17]: > 100 µM | GI50 [18]: 2 µM | TGI [18]: 4.9 µM | GI50 [19]: 6.26 µM | TGI [19]: > 100 µM | GI50 [20]: > 100 µM | TGI [20]: > 100 µM | GI50 [21]: 3.32 µM | TGI [21]: > 100 µM | GI50 [22]: > 100 µM | TGI [22]: > 100 µM | GI50 [23]: 3.74 µM | TGI [23]: > 100 µM | GI50 [24]: 2.91 µM | TGI [24]: > 100 µM | GI50 [25]: 2.68 µM | TGI [25]: 7.02 µM | GI50 [26]: > 100 µM | TGI [26]: > 100 µM | GI50 [27]: 2.58 µM | TGI [27]: > 100 µM | GI50 [28]: > 100 µM | TGI [28]: > 100 µM | GI50 [29]: 3.01 µM | TGI [29]: > 100 µM | GI50 [30]: 4.42 µM | TGI [30]: > 100 µM | GI50 [31]: > 100 µM | TGI [31]: > 100 µM | GI50 [32]: > 100 µM | TGI [32]: > 100 µM | GI50 [33]: > 100 µM | TGI [33]: > 100 µM | GI50 [34]: 5.77 µM | TGI [34]: > 100 µM | GI50 [35]: 3.05 µM | TGI [35]: > 100 µM | GI50 [36]: 2.51 µM | TGI [36]: 5.85 µM | GI50 [37]: 1.76 µM | TGI [37]: 4.26 µM | GI50 [38]: 3.08 µM | TGI [38]: 9.48 µM

c1ccc2[nH]c(-c3ccc(Nc4nc(N5CCCC5)nc5[nH]ncc45)cc3)nc2c1
GI50 [1]: 0.62 µM | TGI [1]: 2.42 µM | GI50 [3]: 1.51 µM | TGI [3]: 3.01 µM | GI50 [5]: 0.403 µM | TGI [5]: 1.62 µM | GI50 [6]: 1.48 µM | TGI [6]: 3.08 µM | GI50 [8]: 0.392 µM | TGI [8]: 1.47 µM | GI50 [9]: 0.255 µM | TGI [9]: 0.763 µM | GI50 [39]: 0.202 µM | TGI [39]: 0.466 µM | GI50 [40]: 1.46 µM | TGI [40]: 3.54 µM | GI50 [11]: 0.211 µM | TGI [11]: 0.486 µM | GI50 [12]: 1.28 µM | TGI [12]: 2.76 µM | GI50 [13]: 0.213 µM | TGI [13]: 0.619 µM | GI50 [14]: 1.14 µM | TGI [14]: 2.75 µM | GI50 [15]: 0.244 µM | TGI [15]: 1.07 µM | GI50 [17]: 0.753 µM | TGI [17]: 2.81 µM | GI50 [41]: 1.71 µM | TGI [41]: 3.37 µM | GI50 [18]: 1.06 µM | TGI [18]: 2.81 µM | GI50 [42]: 1.8 µM | TGI [42]: 4.01 µM | GI50 [19]: 0.254 µM | TGI [19]: 0.87 µM | GI50 [21]: 1.83 µM | TGI [21]: 3.48 µM | GI50 [22]: 0.294 µM | TGI [22]: 0.967 µM | GI50 [43]: 0.217 µM | TGI [43]: 0.486 µM | GI50 [23]: 0.221 µM | TGI [23]: 0.528 µM | GI50 [44]: 0.329 µM | TGI [44]: 1.22 µM | GI50 [24]: 1.29 µM | TGI [24]: 2.56 µM | GI50 [45]: 1.45 µM | TGI [45]: 3.12 µM | GI50 [25]: 1.21 µM | TGI [25]: 4.26 µM | GI50 [46]: 2.55 µM | TGI [46]: 4.87 µM | GI50 [27]: 1.61 µM | TGI [27]: 4.71 µM | GI50 [28]: 0.216 µM | TGI [28]: 0.517 µM | GI50 [29]: 0.412 µM | TGI [29]: 1.77 µM | GI50 [47]: 0.347 µM | TGI [47]: 1.07 µM | GI50 [30]: 0.211 µM | TGI [30]: 0.495 µM | GI50 [48]: 1.46 µM | TGI [48]: 3.07 µM | GI50 [31]: 1.67 µM | TGI [31]: 4.15 µM | GI50 [49]: 0.17 µM | TGI [49]: 0.347 µM | GI50 [32]: 0.294 µM | TGI [32]: 0.826 µM | GI50 [33]: 1.23 µM | TGI [33]: 2.87 µM | GI50 [50]: 1.91 µM | TGI [50]: 3.53 µM | GI50 [51]: 1.05 µM | TGI [51]: 2.24 µM | GI50 [34]: 0.229 µM | TGI [34]: 0.632 µM | GI50 [35]: 0.185 µM | TGI [35]: 0.39 µM | GI50 [52]: 0.808 µM | TGI [52]: 2.7 µM | GI50 [53]: 0.241 µM | TGI [53]: 0.621 µM | GI50 [36]: 0.314 µM | TGI [36]: 1.3 µM | GI50 [54]: 0.203 µM | TGI [54]: 0.473 µM | GI50 [55]: 0.181 µM | TGI [55]: 0.338 µM | GI50 [56]: 1.13 µM | TGI [56]: 2.77 µM | GI50 [37]: 0.814 µM | TGI [37]: 2.27 µM | GI50 [38]: 1.68 µM | TGI [38]: 3.47 µM | GI50 [57]: 0.204 µM | TGI [57]: 0.477 µM
